Assay results published in patent US20250179059A1 (The Regents of the University of California, priority 2021, published 2025).

What was measured:
[1] = tested on: human SKM-1 acute myeloid leukemia cells; experiment: SKM-1 antiproliferation cell-based assay (ATPlite); conditions: Homo sapiens, SKM-1, 96 h, SKM-1 antiproliferation assay, 4 days, Table C2
Method in brief: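 Log-phase cells in RPMI 1640/15% FBS were seeded at 34722 cells/mL and exposed for 4 days to nine-concentration DMSO serial dilutions in triplicate. Viability was read as ATP luminescence (ATPlite 1step), and IC50 values came from variable-slope non-linear regression.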

[2] = biological target: T1, human BRD4 bromodomain II (Homo sapiens, UniProt O60885); experiment: Bromodomain binding assay (AlphaScreen), BRD4 BDII; conditions: AlphaScreen assay, Table C2; read-out: BRD4 BDII IC50
T1 construct: human BRD4 bromodomain II [based on Genbank NM_058243, residues 349-460]; host or cells: E. coli
Method in brief: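 First, His6-tagged BRD4 bromodomain (BDI residues 44-170 or BDII residues 349-460) is incubated with compound for 30 min at room temperature. Next the biotinylated H4 peptide is added for 30 min, then donor and acceptor beads, with 60 min in the dark before AlphaScreen reading and IC50 fitting.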

GI50 [1] | IC50 [2] | Structure (SMILES)
300 to 3000 nM | 10 to 100 nM | CN1CCN(c2c(F)cc(-c3cc(F)cc(-c4ccnc(N5CCNCC5)c4)c3O)cc2F)C1=O [Example 384, 1-methyl-3-(3,5,5′-trifluoro-2′-hydroxy-3′-(2-(piperazin-1-yl)pyridin-4-yl)-[1,1′-biphenyl]-4-yl)imidazolidin-2-one]
300 to 3000 nM | > 100 nM | Cc1cc(-c2cc(F)cc(-c3ccnc(N4CCNCC4)c3)c2O)cc(Cl)c1N1CCN(C)C1=O [Example 385, 1-(3-chloro-5′-fluoro-2′-hydroxy-5-methyl-3′-(2-(piperazin-1-yl)pyridin-4-yl)-[1,1′-biphenyl]-4-yl)-3-methylimidazolidin-2-one]
300 to 3000 nM | > 100 nM | Cc1cc(-c2cc(F)cc(-c3ccnc(N4CCNCC4)c3)c2O)cc(Cl)c1N1CCCC1=O [Example 386, 1-(3-chloro-5′-fluoro-2′-hydroxy-5-methyl-3′-(2-(piperazin-1-yl)pyridin-4-yl)-[1,1′-biphenyl]-4-yl)pyrrolidin-2-one]
30 to 300 nM | 1 to 10 nM | CN1CCN(c2ccc(-c3cc(F)cc(-c4cnc(CO)c(N5CCNCC5)c4)c3O)cc2Cl)C1=O [Example 387, 1-(3-chloro-5′-fluoro-2′-hydroxy-3′-(6-(hydroxymethyl)-5-(piperazin-1-yl)pyridin-3-yl)-[1,1′-biphenyl]-4-yl)-3-methylimidazolidin-2-one]
30 to 300 nM | 1 to 10 nM | Cc1ncc(-c2cc(F)cc(-c3ccc(N4CCN(C)C4=O)c(Cl)c3)c2O)cc1N1CCNCC1 [Example 388, 1-(3-chloro-5′-fluoro-2′-hydroxy-3′-(6-methyl-5-(piperazin-1-yl)pyridin-3-yl)-[1,1′-biphenyl]-4-yl)-3-methylimidazolidin-2-one]
30 to 300 nM | 1 to 10 nM | CC(=O)Nc1ncc(-c2cc(F)cc(-c3ccc(N4CCN(C)C4=O)c(Cl)c3)c2O)cc1N1CCNCC1 [Example 389, N-(5-(3′-chloro-5-fluoro-2-hydroxy-4′-(3-methyl-2-oxoimidazolidin-1-yl)-[1,1′-biphenyl]-3-yl)-3-(piperazin-1-yl)pyridin-2-yl)acetamide]
300 to 3000 nM | 1 to 10 nM | CN1CCN(c2ccc(-c3cc(F)cc(-c4cnc(-c5cn[nH]c5)c(N5CCNCC5)c4)c3O)cc2Cl)C1=O [Example 390, 1-(3-chloro-5′-fluoro-2′-hydroxy-3′-(5-(piperazin-1-yl)-6-(1H-pyrazol-4-yl)pyridin-3-yl)-[1,1′-biphenyl]-4-yl)-3-methylimidazolidin-2-one]
30 to 300 nM | 1 to 10 nM | CN1CCN(c2ccc(-c3cc(F)cc(-c4cnc(-c5ccn[nH]5)c(N5CCNCC5)c4)c3O)cc2Cl)C1=O [Example 391, 1-(3-chloro-5′-fluoro-2′-hydroxy-3′-(5-(piperazin-1-yl)-6-(1H-pyrazol-5-yl)pyridin-3-yl)-[1,1′-biphenyl]-4-yl)-3-methylimidazolidin-2-one]
30 to 300 nM | 1 to 10 nM | CN1CCN(c2ccc(-c3cc(F)cc(-c4cnc(OCCO)c(N5CCNCC5)c4)c3O)cc2Cl)C1=O [Example 392, 1-(3-chloro-5′-fluoro-2′-hydroxy-3′-(6-(2-hydroxyethoxy)-5-(piperazin-1-yl)pyridin-3-yl)-[1,1′-biphenyl]-4-yl)-3-methylimidazolidin-2-one]
30 to 300 nM | 1 to 10 nM | COCCOc1ncc(-c2cc(F)cc(-c3ccc(N4CCN(C)C4=O)c(Cl)c3)c2O)cc1N1CCNCC1 [Example 393, 1-(3-chloro-5′-fluoro-2′-hydroxy-3′-(6-(2-methoxyethoxy)-5-(piperazin-1-yl)pyridin-3-yl)-[1,1′-biphenyl]-4-yl)-3-methylimidazolidin-2-one]
30 to 300 nM | 1 to 10 nM | CN1CCN(c2ccc(-c3cc(F)cc(-c4cc(N5CC[C@H](N)C5)c(=O)n(C)c4)c3O)cc2Cl)C1=O [Example 394, (S)-3-(3-aminopyrrolidin-1-yl)-5-(3′-chloro-5-fluoro-2-hydroxy-4′-(3-methyl-2-oxoimidazolidin-1-yl)-[1,1′-biphenyl]-3-yl)-1-methylpyridin-2(1H)-one]
30 to 300 nM | 1 to 10 nM | CC(=O)NCCNc1ncc(-c2cc(F)cc(-c3ccc(N4CCN(C)C4=O)c(Cl)c3)c2O)cc1N1CCNCC1 [Example 395, N-(2-((5-(3′-chloro-5-fluoro-2-hydroxy-4′-(3-methyl-2-oxoimidazolidin-1-yl)-[1,1′-biphenyl]-3-yl)-3-(piperazin-1-yl)pyridin-2-yl)amino)ethyl)acetamide]
30 to 300 nM | 1 to 10 nM | CC(=O)NCCOc1ncc(-c2cc(F)cc(-c3ccc(N4CCN(C)C4=O)c(Cl)c3)c2O)cc1N1CCNCC1 [Example 396, N-(2-((5-(3′-chloro-5-fluoro-2-hydroxy-4′-(3-methyl-2-oxoimidazolidin-1-yl)-[1,1′-biphenyl]-3-yl)-3-(piperazin-1-yl)pyridin-2-yl)oxy)ethyl)acetamide]
30 to 300 nM | 1 to 10 nM | CN1CCN(c2ccc(-c3cc(F)cc(-c4cnc(N5CCCC5)c(N5CCNCC5)c4)c3O)cc2Cl)C1=O [Example 397, 1-(3-chloro-5′-fluoro-2′-hydroxy-3′-(5-(piperazin-1-yl)-6-(pyrrolidin-1-yl)pyridin-3-yl)-[1,1′-biphenyl]-4-yl)-3-methylimidazolidin-2-one]
≥ 3000 nM | 10 to 100 nM | CN1CCN(c2ccc(-c3cc(F)cc(-c4cnc(C(=O)O)c(N5CCNCC5)c4)c3O)cc2Cl)C1=O [Example 398, 5−(3′-chloro-5-fluoro-2-hydroxy-4′-(3-methyl-2-oxoimidazolidin-1-yl)-[1,1′-biphenyl]-3-yl)-3-(piperazin-1-yl)picolinic acid]
30 to 300 nM | 1 to 10 nM | COCc1ncc(-c2cc(F)cc(-c3ccc(N4CCN(C)C4=O)c(Cl)c3)c2O)cc1N1CCNCC1 [Example 399, 1-(3-chloro-5′-fluoro-2′-hydroxy-3′-(6-(methoxymethyl)-5-(piperazin-1-yl)pyridin-3-yl)-[1,1′-biphenyl]-4-yl)-3-methylimidazolidin-2-one]
300 to 3000 nM | 10 to 100 nM | CN1CCN(c2c(F)cc(-c3cc(F)cc(-c4ccnc(N5CCNCC5)c4)c3O)cc2Cl)C1=O [Example 400, 1-(3-chloro-5,5′-difluoro-2′-hydroxy-3′-(2-(piperazin-1-yl)pyridin-4-yl)-[1,1′-biphenyl]-4-yl)-3-methylimidazolidin-2-one]
300 to 3000 nM | > 100 nM | CN1CCN(c2ccc(-c3cc(F)cc(-c4cc(C5=CCNCC5)cn(C)c4=O)c3O)cc2Cl)C1=O [Example 401, 5-(3′-chloro-5-fluoro-2-hydroxy-4′-(3-methyl-2-oxoimidazolidin-1-yl)-[1,1′-biphenyl]-3-yl)-1-methyl-1′,2′,3′,6′-tetrahydro-[3,4′-bipyridin]-6(1H)-one]
300 to 3000 nM | > 100 nM | O=C1CCCN1c1c(Cl)cc(-c2cc(F)cc(-c3ccnc(N4CCNCC4)c3)c2O)cc1Cl [Example 402, 1-(3,5-dichloro-5′-fluoro-2′-hydroxy-3′-(2-(piperazin-1-yl)pyridin-4-yl)-[1,1′-biphenyl]-4-yl)pyrrolidin-2-one]
0.3 to 30 nM | 1 to 10 nM | CC#Cc1ncc(-c2cc(F)cc(-c3ccc(N4CCN(C)C4=O)c(Cl)c3)c2O)cc1N1CCNCC1 [Example 403, 1-(3-chloro-5′-fluoro-2′-hydroxy-3′-(5-(piperazin-1-yl)-6-(prop-1-yn-1-yl)pyridin-3-yl)-[1,1′-biphenyl]-4-yl)-3-methylimidazolidin-2-one]
300 to 3000 nM | > 100 nM | CN1CCN(c2c(Cl)cc(-c3cc(F)cc(-c4ccnc(N5CCNCC5)c4)c3O)cc2Cl)C1=O [Example 404, 1-(3,5-dichloro-5′-fluoro-2′-hydroxy-3′-(2-(piperazin-1-yl)pyridin-4-yl)-[1,1′-biphenyl]-4-yl)-3-methylimidazolidin-2-one]
30 to 300 nM | 1 to 10 nM | CN1CCN(c2ccc(-c3cc(F)cc(-c4cnc(NCCO)c(N5CCNCC5)c4)c3O)cc2Cl)C1=O [Example 405, 1-(3-chloro-5′-fluoro-2′-hydroxy-3′-(6-((2-hydroxyethyl)amino)-5-(piperazin-1-yl)pyridin-3-yl)-[1,1′-biphenyl]-4-yl)-3-methylimidazolidin-2-one]
30 to 300 nM | 10 to 100 nM | CN1CCN(c2ccc(-c3cc(F)cc(-c4ccnc(N5CCNCC5)c4)c3N)cc2Cl)C1=O [Example 406, 1-(2′-amino-3-chloro-5′-fluoro-3′-(2-(piperazin-1-yl)pyridin-4-yl)-[1,1′-biphenyl]-4-yl)-3-methylimidazolidin-2-one]
0.3 to 30 nM | 1 to 10 nM | CN1CCN(c2ccc(-c3cc(F)cc(-c4cnc(Cl)c(N5CCNCC5)c4)c3O)cc2Cl)C1=O [Example 407, 1-(3-chloro-3′-(6-chloro-5-(piperazin-1-yl)pyridin-3-yl)-5′-fluoro-2′-hydroxy-[1,1′-biphenyl]-4-yl)-3-methylimidazolidin-2-one]
300 to 3000 nM | 10 to 100 nM | Cn1ccn(-c2c(Cl)cc(-c3cc(F)cc(-c4ccnc(N5CCNCC5)c4)c3O)cc2Cl)c1=O [Example 408, 1-(3,5-dichloro-5′-fluoro-2′-hydroxy-3′-(2-(piperazin-1-yl)pyridin-4-yl)-[1,1′-biphenyl]-4-yl)-3-methyl-1H-imidazol-2(3H)-one]
0.3 to 30 nM | 1 to 10 nM | [2H]C([2H])([2H])n1ccn(-c2ccc(-c3cc(F)cc(-c4ccnc(N5CCNCC5)c4)c3O)cc2Cl)c1=O [Example 409, 1-(3-chloro-5′-fluoro-2′-hydroxy-3′-(2-(piperazin-1-yl)pyridin-4-yl)-[1,1′-biphenyl]-4-yl)-3-(trideuteromethyl)-1H-imidazol-2(3H)-one]
